Experimental data from PubChem BioAssay (NCI).
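The concentration for 50% growth inhibition is given as GI50. TGI denotes the concentration required for complete inhibition of growth.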

Experiments:
Assay in all cases: growth of human tumour cells (NCI), 384-well format
[1] = tested on: HL-60(TB) leukemia
[2] = tested on: ACHN renal
[3] = tested on: SW-620 colon
[4] = tested on: NCI-H226 lung
[5] = tested on: SF-295 CNS
[6] = tested on: NCI-H522 lung
[7] = tested on: SF-539 CNS
[8] = tested on: OVCAR-8 ovarian
[9] = tested on: A498 renal
[10] = tested on: SK-MEL-28 melanoma
[11] = tested on: MDA-MB-435 melanoma
[12] = tested on: M14 melanoma
[13] = tested on: T-47D breast
[14] = tested on: HS 578T breast
[15] = tested on: PC-3 prostate
[16] = tested on: EKVX NSCLC
[17] = tested on: HOP-62 NSCLC
[18] = tested on: MOLT-4 leukemia
[19] = tested on: SK-OV-3 ovarian
[20] = tested on: OVCAR-5 ovarian
[21] = tested on: SK-MEL-2 melanoma
[22] = tested on: SR leukemia
[23] = tested on: UO-31 renal
[24] = tested on: SNB-75 CNS
[25] = tested on: DU-145 prostate
[26] = tested on: NCI-H322M lung
[27] = tested on: SN12C renal
[28] = tested on: OVCAR-3 ovarian
[29] = tested on: MCF7 breast
[30] = tested on: HCT-116 colon
[31] = tested on: K-562 leukemia
[32] = tested on: MDA-MB-468 breast
[33] = tested on: MALME-3M melanoma
[34] = tested on: CAKI-1 renal
[35] = tested on: SNB-19 CNS
[36] = tested on: 786-0 renal
[37] = tested on: UACC-62 melanoma
[38] = tested on: IGROV1 ovarian
[39] = tested on: RXF 393 renal
[40] = tested on: KM12 colon
[41] = tested on: A549 NSCLC
[42] = tested on: TK-10 renal
[43] = tested on: U251 glioblastoma
[44] = tested on: SF-268 CNS
[45] = tested on: HT29 colon
[46] = tested on: NCI-H460 NSCLC
[47] = tested on: UACC-257 melanoma
[48] = tested on: HCT-15 colon
[49] = tested on: MDA-MB-231 breast
[50] = tested on: OVCAR-4 ovarian
[51] = tested on: SK-MEL-5 melanoma
[52] = tested on: COLO 205 colon
[53] = tested on: NCI-H23 lung
[54] = tested on: HOP-92 NSCLC

Q: For `C[C@@H](COCCC(=O)N1CCN(c2ncc(C(F)(F)F)cn2)CC1)Nc1cn[nH]c(=O)c1C(F)(F)F`, which GI50 [1] is on record?
A: The GI50 was 2.49 µM.

Q: And the TGI [1]?
A: Its TGI is 16 µM.

Q: And the GI50 [2]?
A: The GI50 was 24 µM.

Q: And the TGI [2]?
A: Its TGI is greater than 100 µM.

Q: What about the GI50 [3] of the same compound?
A: The GI50 was 0.187 µM.

Q: What about the TGI [3] of the same compound?
A: Its TGI is greater than 100 µM.

Q: And the GI50 [4]?
A: The GI50 was 18.6 µM.

Q: What about the TGI [4] of the same compound?
A: Its TGI is greater than 100 µM.

Q: And the GI50 [5]?
A: Its GI50 is 6.19 µM.

Q: What about the TGI [5] of the same compound?
A: Its TGI is 33.9 µM.

Q: What about the GI50 [6] of the same compound?
A: Its GI50 is 31.8 µM.

Q: And the TGI [6]?
A: Its TGI is greater than 100 µM.

Q: What about the GI50 [7] of the same compound?
A: Its GI50 is 3.28 µM.

Q: What about the TGI [7] of the same compound?
A: Its TGI is 27.4 µM.

Q: What about the GI50 [8] of the same compound?
A: Its GI50 is 14.7 µM.

Q: And the TGI [8]?
A: Its TGI is greater than 100 µM.

Q: What about the GI50 [9] of the same compound?
A: Its GI50 is greater than 100 µM.

Q: What about the TGI [9] of the same compound?
A: Its TGI is greater than 100 µM.

Q: What about the GI50 [10] of the same compound?
A: The GI50 was greater than 100 µM.

Q: What about the TGI [10] of the same compound?
A: The TGI was greater than 100 µM.

Q: And the GI50 [11]?
A: The GI50 was greater than 100 µM.

Q: What about the TGI [11] of the same compound?
A: The TGI was greater than 100 µM.

Q: And the GI50 [12]?
A: Its GI50 is 46.8 µM.

Q: And the TGI [12]?
A: The TGI was greater than 100 µM.

Q: And the GI50 [13]?
A: The GI50 was 24.2 µM.

Q: And the TGI [13]?
A: The TGI was greater than 100 µM.

Q: And the GI50 [14]?
A: The GI50 was 1.09 µM.

Q: And the TGI [14]?
A: The TGI was greater than 100 µM.

Q: What about the GI50 [15] of the same compound?
A: The GI50 was 62.5 µM.

Q: What about the TGI [15] of the same compound?
A: Its TGI is greater than 100 µM.

Q: What about the GI50 [16] of the same compound?
A: Its GI50 is 63.6 µM.

Q: And the TGI [16]?
A: Its TGI is greater than 100 µM.

Q: What about the GI50 [17] of the same compound?
A: The GI50 was 4.01 µM.

Q: And the TGI [17]?
A: Its TGI is 22.5 µM.

Q: And the GI50 [18]?
A: Its GI50 is 1.53 µM.

Q: What about the TGI [18] of the same compound?
A: The TGI was 2.97 µM.

Q: And the GI50 [19]?
A: Its GI50 is 13.9 µM.

Q: And the TGI [19]?
A: The TGI was 79.8 µM.

Q: What about the GI50 [20] of the same compound?
A: Its GI50 is greater than 100 µM.

Q: What about the TGI [20] of the same compound?
A: Its TGI is greater than 100 µM.

Q: What about the GI50 [21] of the same compound?
A: The GI50 was greater than 100 µM.

Q: What about the TGI [21] of the same compound?
A: Its TGI is greater than 100 µM.

Q: And the GI50 [22]?
A: The GI50 was 1.31 µM.

Q: And the TGI [22]?
A: The TGI was 2.67 µM.

Q: And the GI50 [23]?
A: Its GI50 is 22.4 µM.

Q: And the TGI [23]?
A: The TGI was greater than 100 µM.

Q: And the GI50 [24]?
A: Its GI50 is 12.4 µM.

Q: What about the TGI [24] of the same compound?
A: The TGI was greater than 100 µM.

Q: And the GI50 [25]?
A: The GI50 was 12.7 µM.

Q: And the TGI [25]?
A: Its TGI is greater than 100 µM.

Q: And the GI50 [26]?
A: Its GI50 is greater than 100 µM.

Q: What about the TGI [26] of the same compound?
A: Its TGI is greater than 100 µM.

Q: What about the GI50 [27] of the same compound?
A: The GI50 was 5.17 µM.

Q: And the TGI [27]?
A: Its TGI is 51.9 µM.

Q: What about the GI50 [28] of the same compound?
A: Its GI50 is 35.5 µM.

Q: And the TGI [28]?
A: Its TGI is greater than 100 µM.

Q: What about the GI50 [29] of the same compound?
A: The GI50 was 14.5 µM.

Q: And the TGI [29]?
A: The TGI was greater than 100 µM.

Q: And the GI50 [30]?
A: Its GI50 is 8.64 µM.

Q: And the TGI [30]?
A: Its TGI is greater than 100 µM.

Q: And the GI50 [31]?
A: The GI50 was 10 µM.

Q: What about the TGI [31] of the same compound?
A: Its TGI is greater than 100 µM.

Q: And the GI50 [32]?
A: Its GI50 is 3.72 µM.

Q: And the TGI [32]?
A: Its TGI is 23.5 µM.

Q: And the GI50 [33]?
A: The GI50 was greater than 100 µM.

Q: And the TGI [33]?
A: Its TGI is greater than 100 µM.

Q: What about the GI50 [34] of the same compound?
A: Its GI50 is 25.7 µM.

Q: And the TGI [34]?
A: Its TGI is greater than 100 µM.

Q: What about the GI50 [35] of the same compound?
A: Its GI50 is 48 µM.

Q: And the TGI [35]?
A: Its TGI is greater than 100 µM.

Q: What about the GI50 [36] of the same compound?
A: Its GI50 is 41.5 µM.

Q: And the TGI [36]?
A: Its TGI is greater than 100 µM.

Q: What about the GI50 [37] of the same compound?
A: Its GI50 is 32.3 µM.

Q: What about the TGI [37] of the same compound?
A: The TGI was greater than 100 µM.

Q: And the GI50 [38]?
A: Its GI50 is 69.1 µM.

Q: And the TGI [38]?
A: The TGI was greater than 100 µM.

Q: And the TGI [39]?
A: The TGI was 20.3 µM.

Q: And the GI50 [40]?
A: The GI50 was 3.66 µM.

Q: And the TGI [40]?
A: The TGI was 82.7 µM.

Q: What about the GI50 [41] of the same compound?
A: Its GI50 is 41 µM.

Q: And the TGI [41]?
A: Its TGI is greater than 100 µM.

Q: What about the GI50 [42] of the same compound?
A: The GI50 was greater than 100 µM.

Q: And the TGI [42]?
A: Its TGI is greater than 100 µM.

Q: What about the GI50 [43] of the same compound?
A: Its GI50 is 11.6 µM.

Q: And the TGI [43]?
A: The TGI was 73.7 µM.

Q: What about the GI50 [44] of the same compound?
A: The GI50 was 10.1 µM.

Q: And the TGI [44]?
A: The TGI was 73.1 µM.

Q: What about the GI50 [45] of the same compound?
A: The GI50 was greater than 100 µM.

Q: What about the TGI [45] of the same compound?
A: Its TGI is greater than 100 µM.

Q: What about the GI50 [46] of the same compound?
A: The GI50 was 16.1 µM.

Q: And the TGI [46]?
A: Its TGI is greater than 100 µM.

Q: And the GI50 [47]?
A: Its GI50 is 60.4 µM.

Q: And the TGI [47]?
A: Its TGI is greater than 100 µM.

Q: What about the GI50 [48] of the same compound?
A: Its GI50 is 77.9 µM.

Q: And the TGI [48]?
A: Its TGI is greater than 100 µM.

Q: What about the GI50 [49] of the same compound?
A: Its GI50 is greater than 100 µM.

Q: What about the TGI [49] of the same compound?
A: Its TGI is greater than 100 µM.

Q: What about the GI50 [50] of the same compound?
A: Its GI50 is greater than 100 µM.

Q: And the TGI [50]?
A: The TGI was greater than 100 µM.

Q: And the GI50 [51]?
A: Its GI50 is 48.5 µM.

Q: And the TGI [51]?
A: Its TGI is greater than 100 µM.

Q: What about the GI50 [52] of the same compound?
A: Its GI50 is greater than 100 µM.

Q: And the TGI [52]?
A: The TGI was greater than 100 µM.

Q: What about the GI50 [53] of the same compound?
A: The GI50 was 9.26 µM.

Q: And the TGI [53]?
A: The TGI was 52.1 µM.

Q: What about the GI50 [54] of the same compound?
A: Its GI50 is 41.2 µM.

Q: What about the TGI [54] of the same compound?
A: Its TGI is greater than 100 µM.
